Experimental data: article PMC9090415, “Discovery of small molecule inhibitors of Plasmodium falciparum apicoplast DNA polymerase” (Journal of Enzyme Inhibition and Medicinal Chemistry, 2022)

Biological target: P. falciparum apicoplast DNA polymerase (Pf-apPOL) (Plasmodium falciparum, UniProt Q8ILY1)
Test: Fluorescence-based high-throughput DNA polymerase assay (molecular beacon), primary screen and dose-response
Format: biochemical
Conditions: for DNA Pol: 90 min, 10 µM; for % inhibition Apo pol 5': DRC-2, 5'; for % inhibition Apol 40': DRC-2, 40'; for % inhibition ApPOL 90': DRC-2, 90'
How it was run: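 Single-point screening used 10 µM compound with 20 nM polymerase, 20 nM hairpin substrate and 6 µM dNTPs for 90 min at 25 °C. Confirmatory titrations (2.5–80 µM) followed fluorescence at three times, and IC50 was derived from a fit including a cooperativity term n.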

P. falciparum apicoplast DNA polymerase (Pf-apPOL), sequence (Q8ILY1 entry or part of it): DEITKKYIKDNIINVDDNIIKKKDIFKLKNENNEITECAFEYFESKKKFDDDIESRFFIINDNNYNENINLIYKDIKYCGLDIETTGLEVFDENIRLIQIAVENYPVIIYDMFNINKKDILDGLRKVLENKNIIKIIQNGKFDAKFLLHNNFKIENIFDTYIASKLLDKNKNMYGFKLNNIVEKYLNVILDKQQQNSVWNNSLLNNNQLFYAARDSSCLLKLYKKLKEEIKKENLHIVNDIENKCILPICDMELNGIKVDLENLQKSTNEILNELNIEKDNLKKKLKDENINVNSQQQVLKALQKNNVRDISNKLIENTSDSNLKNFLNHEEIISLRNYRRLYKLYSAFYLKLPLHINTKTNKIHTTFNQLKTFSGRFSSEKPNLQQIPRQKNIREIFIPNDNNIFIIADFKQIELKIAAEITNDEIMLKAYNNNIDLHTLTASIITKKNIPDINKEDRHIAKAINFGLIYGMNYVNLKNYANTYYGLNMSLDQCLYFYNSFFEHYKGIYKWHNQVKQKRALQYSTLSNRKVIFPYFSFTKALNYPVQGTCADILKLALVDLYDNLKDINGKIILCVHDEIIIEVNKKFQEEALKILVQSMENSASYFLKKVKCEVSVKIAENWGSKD

COc1ccc2c(c1)CCc1c-2nc2ccc(Br)cc2c1C(=O)O [KU0059417]
DNA Pol ('DNA Pol', screening value, unit not given): 29 | % inhibition Apo pol 10' (DRC-1, concentration 2.5): 25.2919% | % inhibition Apo pol 10' (DRC-1, concentration 5): 33.9692% | % inhibition Apo pol 10' (DRC-1, concentration 10): 45.4557% | % inhibition Apo pol 10' (DRC-1, concentration 20): 55.4931% | % inhibition Apo pol 10' (DRC-1, concentration 40): 69.0477% | % inhibition Apo pol 10' (DRC-1, concentration 80): 75.6745% | % inhibition Apol 90' (DRC-1, concentration 2.5): 11.1508% | % inhibition Apol 90' (DRC-1, concentration 5): 18.7068% | % inhibition Apol 90' (DRC-1, concentration 10): 30.3823% | % inhibition Apol 90' (DRC-1, concentration 20): 41.2946% | % inhibition Apol 90' (DRC-1, concentration 40): 54.5207% | % inhibition Apol 90' (DRC-1, concentration 80): 62.4129% | % inhibition apPOL 180' (DRC-1, 180', concentration 2.5): 3.289% | % inhibition apPOL 180' (DRC-1, 180', concentration 5): 10.0066% | % inhibition apPOL 180' (DRC-1, 180', concentration 10): 20.2825% | % inhibition apPOL 180' (DRC-1, 180', concentration 20): 30.8503% | % inhibition apPOL 180' (DRC-1, 180', concentration 40): 43.5885% | % inhibition apPOL 180' (DRC-1, 180', concentration 80): 50.0867% | % inhibition Apo pol 5' (concentration 2.5): 21% | % inhibition Apo pol 5' (concentration 5): 27% | % inhibition Apo pol 5' (concentration 10): 34% | % inhibition Apo pol 5' (concentration 20): 40% | % inhibition Apo pol 5' (concentration 40): 53% | % inhibition Apo pol 5' (concentration 80): 60% | % inhibition Apol 40' (concentration 2.5): 17% | % inhibition Apol 40' (concentration 5): 24% | % inhibition Apol 40' (concentration 10): 33% | % inhibition Apol 40' (concentration 20): 39% | % inhibition Apol 40' (concentration 40): 54% | % inhibition Apol 40' (concentration 80): 68% | % inhibition ApPOL 90' (concentration 2.5): 15% | % inhibition ApPOL 90' (concentration 5): 22% | % inhibition ApPOL 90' (concentration 10): 31% | % inhibition ApPOL 90' (concentration 20): 37% | % inhibition ApPOL 90' (concentration 40): 52% | % inhibition ApPOL 90' (concentration 80): 69% | % inhibition apPOL 180' (DRC-2, 180', concentration 2.5): 7% | % inhibition apPOL 180' (DRC-2, 180', concentration 5): 13% | % inhibition apPOL 180' (DRC-2, 180', concentration 10): 20% | % inhibition apPOL 180' (DRC-2, 180', concentration 20): 25% | % inhibition apPOL 180' (DRC-2, 180', concentration 40): 42% | % inhibition apPOL 180' (DRC-2, 180', concentration 80): 64% | DNA Pol (primary screen hit value, DNA Pol (186 hits)): 29

COc1ccc(/C=C/c2cc(C(=O)O)c3ccccc3n2)cc1 [Molecule 5]
IC50 (supplemental file 2, sheet IC50 nontoxic compounds, Pf-apPOL): 3.86 µM
